According to ChEMBL document CHEMBL2046274, “Pyrazolo[4,3-c][1,2]benzothiazines 5,5-dioxide: a promising new class of Staphylococcus aureus NorA efflux pump inhibitors” (J Med Chem, 2012):
≈ marks a conversion by molar mass, not a printed value. Calls of active or inactive are those of the source. The rule behind the calls is not given here.

What was measured:
[1] = target: T1, Quinolone resistance protein NorA (Staphylococcus aureus) (UniProt P0A0J7); test: Inhibition of norA overexpressed in Staphylococcus aureus SA1199B coexpressing A116E GrlA mutation assessed as potentiation of ciprofloxacin MIC by checkerboard assay
T1 sequence (whole entry): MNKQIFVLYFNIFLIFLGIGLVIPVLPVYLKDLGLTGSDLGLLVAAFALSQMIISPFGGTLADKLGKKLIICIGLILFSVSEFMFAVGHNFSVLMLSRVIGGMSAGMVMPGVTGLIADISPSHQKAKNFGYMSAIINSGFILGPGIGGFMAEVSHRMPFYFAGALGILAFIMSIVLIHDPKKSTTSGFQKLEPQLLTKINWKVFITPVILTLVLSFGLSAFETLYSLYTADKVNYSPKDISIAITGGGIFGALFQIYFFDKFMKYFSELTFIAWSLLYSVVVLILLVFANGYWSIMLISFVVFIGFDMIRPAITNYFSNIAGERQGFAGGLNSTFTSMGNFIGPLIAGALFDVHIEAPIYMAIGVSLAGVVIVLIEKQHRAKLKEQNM

[2] = target: T1, Quinolone resistance protein NorA (Staphylococcus aureus); test: Inhibition of norA overexpressed in Staphylococcus aureus SA1199B coexpressing A116E GrlA mutation assessed as fold reduction in ciprofloxacin MIC at >12.5 ug/mL by checkerboard assay
Staphylococcus aureus [3] = test: Antibacterial activity against Staphylococcus aureus SA1199B overexpressing norA and expressing A116E GrlA mutation by microdilution method; format: functional
[4] = target: Quinolone resistance protein NorA (Staphylococcus aureus, UniProt P0A0J7, A116E); test: Inhibition of norA-mediated EtBr efflux in Staphylococcus aureus SA1199B overexpressing norA and expressing A116E GrlA mutation by fluorometry
Staphylococcus aureus [5] = test: Potentiation of CPX MIC against norA-deficient Staphylococcus aureus SAK1902 by checkerboard assay; format: functional, organism-based
Staphylococcus aureus [6] = test: Antibacterial activity against norA-deficient Staphylococcus aureus SAK1902 by microdilution method; format: functional
[7] = target: T1, Quinolone resistance protein NorA (Staphylococcus aureus); test: Inhibition of norA in Staphylococcus aureus SA1199B overexpressing norA and expressing A116E GrlA mutation assessed as fold reduction in ciprofloxacin MIC at >6.25 ug/mL by checkerboard assay
[8] = Cytotoxicity against human HepG2 cells after 24 hrs by LDH release assay; format: cell-based
Staphylococcus aureus [9] = test: Antibacterial activity against Staphylococcus aureus SAK2378 overexpressing norA by microdilution method; format: functional
[10] = target: T1, Quinolone resistance protein NorA (Staphylococcus aureus); test: Inhibition of norA-mediated EtBr efflux in Staphylococcus aureus SA1199B overexpressing norA and expressing A116E GrlA mutation at 50 uM by fluorometry
[11] = target: T1, Quinolone resistance protein NorA (Staphylococcus aureus); test: Inhibition of norA in wild type Staphylococcus aureus SA1199 expressing assessed as potentiation of ciprofloxacin MIC by checkerboard assay
Staphylococcus aureus [12] = test: Antibacterial activity against wild type Staphylococcus aureus SA1199 expressing norA by microdilution method; format: functional
[13] = target: T1, Quinolone resistance protein NorA (Staphylococcus aureus); test: Inhibition of norA overexpressed in Staphylococcus aureus SAK2378 assessed as potentiation of CPX MIC by checkerboard assay
[14] = target: T1, Quinolone resistance protein NorA (Staphylococcus aureus); test: Inhibition of norA overexpressed in Staphylococcus aureus SA1199B coexpressing A116E GrlA mutation potentiation of EtBr MIC at >6.25 ug/mL by checkerboard assay

O=[N+]([O-])c1ccc(-n2nc(-c3ccc(Cl)cc3)c3c2-c2ccccc2S(=O)(=O)N3)cc1
inhibition [1]: Active | fold change (FC) [2]: 16 | MIC (Staphylococcus aureus [3]): 50 µg/mL (≈ 110 µM) | IC50 [4]: 10 µM | Activity (Staphylococcus aureus [5]): Active | MIC (Staphylococcus aureus [6]): 25 µg/mL (≈ 55.2 µM) | fold change (FC) [7]: 8 | CC50 at 24 h [8]: > 100 µg/mL | MIC (Staphylococcus aureus [9]): 25 µg/mL (≈ 55.2 µM) | inhibition [10]: 76.9% | inhibition [11]: inactive | MIC (Staphylococcus aureus [12]): 50 µg/mL (≈ 110 µM) | inhibition [13]: Active

CN1c2c(-c3ccc(Cl)cc3)nn(-c3cccc(C(F)(F)F)c3)c2-c2ccccc2S1(=O)=O
inhibition [10]: 0%

CS(=O)(=O)Nc1ccc(-n2nc(-c3ccc(Cl)cc3)c3c2-c2ccccc2S(=O)(=O)N3)cc1
inhibition [10]: 19.2%

NS(=O)(=O)c1ccc(-n2nc(-c3ccc(Cl)cc3)c3c2-c2ccccc2S(=O)(=O)N3)cc1
inhibition [10]: 29.8%

O=S1(=O)Nc2c(-c3ccc(Cl)cc3)nn(-c3ccc(F)cc3)c2-c2ccccc21
inhibition [10]: 15.5%

O=S1(=O)Nc2c(-c3ccc(Cl)cc3)nn(-c3cccc(F)c3)c2-c2ccccc21
inhibition [10]: 33.9%

Cc1ccc(-c2cc(C(F)(F)F)nn2-c2ccc(S(N)(=O)=O)cc2)cc1 [CELECOXIB]
inhibition [1]: inactive | MIC (Staphylococcus aureus [3]): > 100 µg/mL | IC50 [4]: > 40 µM | inhibition [14]: Active | inhibition [10]: 64.5% | inhibition [11]: inactive | MIC (Staphylococcus aureus [12]): > 100 µg/mL

O=C(O)c1cn(C2CC2)c2cc(N3CCNCC3)c(F)cc2c1=O [CIPROFLOXACIN]
MIC (Staphylococcus aureus [3]): 10 µg/mL (≈ 30.2 µM) | MIC (Staphylococcus aureus [6]): 0.31 µg/mL (≈ 0.936 µM) | MIC (Staphylococcus aureus [9]): 2.5 µg/mL (≈ 7.54 µM) | MIC (Staphylococcus aureus [12]): 0.63 µg/mL (≈ 1.9 µM)

Fc1ccc([C@@H]2CCNC[C@H]2COc2ccc3c(c2)OCO3)cc1 [PAROXETINE]
inhibition [1]: Active | MIC (Staphylococcus aureus [3]): > 100 µg/mL | MIC (Staphylococcus aureus [6]): > 100 µg/mL | MIC (Staphylococcus aureus [9]): 100 µg/mL (≈ 304 µM) | inhibition [11]: inactive | MIC (Staphylococcus aureus [12]): > 100 µg/mL

COC(=O)[C@H]1[C@H]2C[C@@H]3c4[nH]c5cc(OC)ccc5c4CCN3C[C@H]2C[C@@H](OC(=O)c2cc(OC)c(OC)c(OC)c2)[C@@H]1OC [RESERPINE]
inhibition [1]: Active | MIC (Staphylococcus aureus [3]): > 100 µg/mL | MIC (Staphylococcus aureus [6]): > 100 µg/mL | MIC (Staphylococcus aureus [9]): > 100 µg/mL | inhibition [11]: inactive | MIC (Staphylococcus aureus [12]): > 100 µg/mL
